Data on 20 molecules can be found in US10669269B2, “Substituted N-(1H-indazol-4-yl)imidazo[1,2-a]pyridine-3-carboxamide compounds as type III receptor tyrosine kinase inhibitors” (ARRAY BIOPHARMA INC., priority 2010, dated 2020).

Counter-ions that a name gives are not always drawn.

A word on the IC50: it is the concentration that gives 50% inhibition.

One experiment addresses T1, cFMS (Homo sapiens, UniProt P07333).
T1 construct: THP-1 cells (human acute monocytic leukemia cell line) were serum-starved for 4 hours; endogenous in cells; host or cells: THP-1 cells (human acute monocytic leukemia cell line)
The experiment is described as follows: cFMS Cell-Based Assay (Example C). The note with it: averaged IC50; phospho-cFMS in THP-1 cells stimulated with 250 ng/mL recombinant human MCSF; read-out: cFMS Cell ELISA IC50. How it is done:
The ability of compounds of Formula I to inhibit cFMS activation in cells was determined by the following assay. THP-1 cells (human acute monocytic leukemia cell line) were serum-starved for 4 hours prior to treatment with compounds of Formula I for 1 hour. The concentration of compounds of Formula I was varied over a 9-point, 3-fold dilution series with 5,000 nM typically being the highest dose. Cell culture and treatment were carried out in a humidified 37° C., 5% CO2 incubator. Treated cells were stimulated with 250 ng/mL recombinant human MCSF for 1 minute to induce activation of cFMS. Cells were lysed in a manner which preserves phosphoproteins, and the lysate was analyzed by ELISA (R&D Systems, Human Phospho-M-CSF R DuoSet IC DYC3268), in which total cFMS protein in the lysate is captured and phosphotyrosine residues of cFMS are detected. A standard curve, made using purified phospho-M-CSF R protein, was used to quantify phospho-c-FMS in compound-treated wells. A standard 4-parameter logistic model was fit to the inhibitor dose response curves, with the IC50 being defined as the concentration of inhibitor giving 50 percent of control (POC).
Background: ELISA stands for enzyme-linked immunosorbent assay.

For the next experiment, the target named is T2, PDGFR beta (Homo sapiens, UniProt P09619).
T2 construct: endogenous in cells; host or cells: HS27 human fibroblast cell line
T2 sequence (P09619 33-1106): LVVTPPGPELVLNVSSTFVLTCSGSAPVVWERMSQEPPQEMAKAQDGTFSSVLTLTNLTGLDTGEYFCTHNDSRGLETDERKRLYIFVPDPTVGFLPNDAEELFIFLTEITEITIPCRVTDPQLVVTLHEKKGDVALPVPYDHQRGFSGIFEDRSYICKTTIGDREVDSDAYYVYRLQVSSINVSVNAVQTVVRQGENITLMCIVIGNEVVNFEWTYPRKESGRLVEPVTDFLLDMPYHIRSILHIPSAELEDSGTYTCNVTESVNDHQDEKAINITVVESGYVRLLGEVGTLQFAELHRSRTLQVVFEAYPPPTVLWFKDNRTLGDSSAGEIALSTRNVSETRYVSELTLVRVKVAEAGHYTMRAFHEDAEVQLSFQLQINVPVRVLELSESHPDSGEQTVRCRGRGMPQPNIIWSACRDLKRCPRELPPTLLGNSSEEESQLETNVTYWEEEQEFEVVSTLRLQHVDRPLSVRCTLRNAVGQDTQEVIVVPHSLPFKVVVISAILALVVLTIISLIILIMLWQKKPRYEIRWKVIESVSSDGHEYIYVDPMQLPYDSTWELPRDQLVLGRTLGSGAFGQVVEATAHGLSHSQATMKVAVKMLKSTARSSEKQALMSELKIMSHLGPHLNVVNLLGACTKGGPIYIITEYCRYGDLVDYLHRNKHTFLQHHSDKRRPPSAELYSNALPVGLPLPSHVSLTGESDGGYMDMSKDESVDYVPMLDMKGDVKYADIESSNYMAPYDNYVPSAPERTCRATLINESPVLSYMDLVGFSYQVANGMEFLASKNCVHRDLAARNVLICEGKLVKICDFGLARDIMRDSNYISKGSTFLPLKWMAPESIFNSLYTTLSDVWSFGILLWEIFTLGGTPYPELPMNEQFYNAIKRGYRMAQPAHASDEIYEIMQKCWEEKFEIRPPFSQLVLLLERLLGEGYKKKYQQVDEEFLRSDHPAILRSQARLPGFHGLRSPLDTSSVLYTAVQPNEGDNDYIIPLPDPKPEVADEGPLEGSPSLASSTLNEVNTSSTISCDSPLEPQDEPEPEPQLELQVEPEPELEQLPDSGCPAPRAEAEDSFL
The experiment is described as follows: Phospho PDGFR LICOR Cell Assay (Example B). The experiment is classed as cell-based. The note with it: averaged IC50; PDGFR beta phosphorylation in HS27 human fibroblast cell line, PDGF-BB stimulation 10 minutes, normalized to total ERK. Here is the method: Compounds were screened for inhibition of PDGFR beta phosphorylation in the HS27 human fibroblast cell line. Cells were seeded into a 96 well tissue culture plate, then incubated overnight in a 37° C./5% CO2 incubator. The following day, cells were treated for one hour with test compound dilutions. After stimulation with PDGF-BB ligand for 10 minutes, cells were washed with PBS and fixed in 3.7% formaldehyde in PBS for 10 minutes. This was followed by washing in PBS/0.2% Triton X-100 and permeabilizing in 100% MeOH for 10 minutes. Cells were incubated in blocking buffer for 1 hour. Antibodies to phosphorylated PDGFRβ and total ERK were added to the cells and incubated for 3 hours. After washing with PBS/0.2% Triton X-100, the cells were incubated with fluorescently-labeled secondary antibodies for an additional hour. Cells were then washed with PBS and analyzed for fluorescence at both wavelengths using the Odyssey Infrared Imaging System (LI-COR Biosciences). Phosphorylated PDGFR signal was normalized to total ERK signal. A standard 4-parameter logistic model was fit to the inhibitor dose response curves, with the IC50 being defined as the concentration of inhibitor giving 50 percent of control (POC).

The target in a further experiment is T3, c-KIT (Homo sapiens, UniProt P10721).
T3 construct: M-07e cells (human acute megakaryoblastic leukemia cell line) were serum-starved for 4 hours; endogenous in cells; host or cells: M-07e cells (human acute megakaryoblastic leukemia cell line)
T3 sequence (P10721 26-976): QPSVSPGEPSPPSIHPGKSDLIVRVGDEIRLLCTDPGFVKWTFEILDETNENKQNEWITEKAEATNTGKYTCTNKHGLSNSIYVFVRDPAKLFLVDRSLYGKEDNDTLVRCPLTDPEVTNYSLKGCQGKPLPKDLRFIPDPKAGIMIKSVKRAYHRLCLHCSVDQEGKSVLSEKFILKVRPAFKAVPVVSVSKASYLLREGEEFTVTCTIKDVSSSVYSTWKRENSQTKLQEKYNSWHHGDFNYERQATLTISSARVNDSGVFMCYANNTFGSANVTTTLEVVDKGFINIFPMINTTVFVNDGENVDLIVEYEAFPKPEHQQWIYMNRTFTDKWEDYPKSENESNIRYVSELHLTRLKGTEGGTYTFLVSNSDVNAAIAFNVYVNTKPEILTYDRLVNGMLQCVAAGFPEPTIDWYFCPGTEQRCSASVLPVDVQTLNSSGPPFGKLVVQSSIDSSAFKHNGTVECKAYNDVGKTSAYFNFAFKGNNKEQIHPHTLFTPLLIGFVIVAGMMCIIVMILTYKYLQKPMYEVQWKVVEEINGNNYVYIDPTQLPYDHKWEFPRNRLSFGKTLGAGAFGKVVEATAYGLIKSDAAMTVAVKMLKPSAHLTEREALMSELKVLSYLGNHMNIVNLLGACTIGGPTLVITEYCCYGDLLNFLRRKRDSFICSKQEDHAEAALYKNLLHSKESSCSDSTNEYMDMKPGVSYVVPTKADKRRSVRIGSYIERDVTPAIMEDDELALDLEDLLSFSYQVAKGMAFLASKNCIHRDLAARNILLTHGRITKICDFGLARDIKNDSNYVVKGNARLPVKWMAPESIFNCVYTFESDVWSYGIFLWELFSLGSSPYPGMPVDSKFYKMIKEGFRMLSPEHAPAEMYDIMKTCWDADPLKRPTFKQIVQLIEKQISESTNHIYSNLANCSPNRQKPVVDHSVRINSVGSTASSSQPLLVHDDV
In words: c-KIT Cell-Based Assay (Example D). The note with it: averaged IC50; phospho-c-KIT in M-07e cells stimulated with 150 ng/ml recombinant human SCF; read-out: cKIT Cell ELISA IC50. Here is the method:
The ability of compounds of Formula I to inhibit c-KIT activation in cells was determined by the following assay. M-07e cells (human acute megakaryoblastic leukemia cell line) were serum-starved for 4 hours prior to treatment with compounds of Formula I for 1 hour. The concentration of compounds of Formula I was varied over a 9-point, 3-fold dilution series with 5,000 nM typically being the highest dose. Cell culture and treatment were carried out in a humidified 37° C., 5% CO2 incubator. Treated cells were stimulated with 150 ng/ml recombinant human SCF for 4 minutes to induce activation of c-KIT. Cells were lysed in a manner which preserves phosphoproteins, and the lysate was analyzed by ELISA (R&D Systems, Human Phospho-SCF R DuoSet IC DYC3527), in which total c-KIT protein in the lysate is captured and phosphotyrosine residues of c-Kit are detected. A standard curve, made using purified phospho-SCF R protein, was used to quantify phospho-c-KIT in compound-treated wells. A standard 4-parameter logistic model was fit to the inhibitor dose response curves, with the IC50 being defined as the concentration of inhibitor giving 50 percent of control (POC).

T1 sequence (P07333 20-972): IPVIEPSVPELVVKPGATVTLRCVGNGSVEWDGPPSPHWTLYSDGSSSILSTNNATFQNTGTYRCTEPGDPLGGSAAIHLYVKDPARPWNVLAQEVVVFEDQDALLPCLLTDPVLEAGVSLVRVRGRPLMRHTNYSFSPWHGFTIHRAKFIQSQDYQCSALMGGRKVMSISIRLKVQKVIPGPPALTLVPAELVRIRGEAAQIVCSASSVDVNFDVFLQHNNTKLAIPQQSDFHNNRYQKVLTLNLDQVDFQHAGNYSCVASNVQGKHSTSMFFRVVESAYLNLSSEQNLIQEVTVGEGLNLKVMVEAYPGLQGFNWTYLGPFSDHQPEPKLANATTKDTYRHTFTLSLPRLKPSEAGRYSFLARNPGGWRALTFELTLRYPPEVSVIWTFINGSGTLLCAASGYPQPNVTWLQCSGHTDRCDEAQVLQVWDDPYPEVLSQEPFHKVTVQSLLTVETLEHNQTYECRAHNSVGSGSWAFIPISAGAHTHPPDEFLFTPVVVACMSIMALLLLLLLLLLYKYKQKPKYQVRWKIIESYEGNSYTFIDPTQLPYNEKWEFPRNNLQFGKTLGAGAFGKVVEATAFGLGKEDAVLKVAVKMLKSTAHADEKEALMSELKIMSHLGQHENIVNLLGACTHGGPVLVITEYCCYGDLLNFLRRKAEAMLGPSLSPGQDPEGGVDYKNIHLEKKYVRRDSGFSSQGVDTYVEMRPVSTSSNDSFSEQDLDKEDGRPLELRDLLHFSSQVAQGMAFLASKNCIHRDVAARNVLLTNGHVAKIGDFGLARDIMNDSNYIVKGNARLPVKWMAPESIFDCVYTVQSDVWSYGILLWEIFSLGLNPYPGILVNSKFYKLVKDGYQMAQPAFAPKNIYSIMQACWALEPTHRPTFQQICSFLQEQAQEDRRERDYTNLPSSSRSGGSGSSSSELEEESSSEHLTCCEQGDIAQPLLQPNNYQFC

Turning to `COCCOc1ccn2c(C(=O)Nc3cccc4c3cnn4Cc3ccc(C(F)(F)F)cc3)cnc2c1` [Example 120, 7-(2-methoxyethoxy)-N-(1-(4-(trifluoromethyl)benzyl)-1H-indazol-4-yl)imidazo[1,2-a]pyridine-3-carboxamide], the 50% inhibitory concentration (IC50) was 34.4 nM on cFMS, 7.7 nM against PDGFR beta and 14.5 nM at c-KIT.
As to `Cc1nn(Cc2cc(C)n(C(C)C)n2)c2cccc(NC(=O)c3cnc4cc(OCCN5CCN(C)CC5)ccn34)c12` [Example 67, N-(1-((1-isopropyl-5-methyl-1H-pyrazol-3-yl)methyl)-3-methyl-1H-indazol-4-yl)-7-(2-(4-methylpiperazin-1-yl)ethoxy)imidazo[1,2-a]pyridine-3-carboxamide], the half-inhibitory concentration (IC50) was 10 nM on cFMS, 10.3 nM at PDGFR beta and 60.6 nM at c-KIT.
Taken in the same sequence, the figures for `COCCOc1ccn2c(C(=O)Nc3cccc4c3cnn4CC3CCCCC3)cnc2c1` [Example 115, N-(1-(cyclohexylmethyl)-1H-indazol-4-yl)-7-(2-methoxyethoxy)imidazo[1,2-a]pyridine-3-carboxamide] were 24.1 nM, 6.8 nM and 13.4 nM.
Turning to `Cc1cccc(Cn2nc(C)c3c(NC(=O)c4cnc5cc(CCN(C)C)ccn45)cccc32)n1` [Example 72, 7-(2-(dimethylamino)ethyl)-N-(3-methyl-1-((6-methylpyridin-2-yl)methyl)-1H-indazol-4-yl)imidazo[1,2-a]pyridine-3-carboxamide], the IC50 on cFMS was found to be 24.2 nM; against PDGFR beta, 3160 nM; at c-KIT, 7010 nM.
Taken in the same sequence, the figures for `COCCOc1ccn2c(C(=O)Nc3cccc4c3cnn4CC3CCOCC3)cnc2c1` [Example 113, 7-(2-methoxyethoxy)-N-(1-((tetrahydro-2H-pyran-4-yl)methyl)-1H-indazol-4-yl)imidazo[1,2-a]pyridine-3-carboxamide] were 121 nM, 289 nM and 331 nM.
Take `COCCOc1ccn2c(C(=O)Nc3cccc4c3cnn4Cc3ccccn3)cnc2c1` [Example 112, 7-(2-methoxyethoxy)-N-(1-(pyridin-2-ylmethyl)-1H-indazol-4-yl)imidazo[1,2-a]pyridine-3-carboxamide]: the results for the IC50 on cFMS, against PDGFR beta and at c-KIT were 33.7 nM, 16.7 nM and 68.9 nM, respectively.
Regarding `CC(C)c1cccc(Cn2ncc3c(NC(=O)c4cnc5cc(OCCN6CCN(C)CC6)ccn45)cccc32)n1` [Example 138, N-(1-((6-isopropylpyridin-2-yl)methyl)-1H-indazol-4-yl)-7-(2-(4-methylpiperazin-1-yl)ethoxy)imidazo[1,2-a]pyridine-3-carboxamide], the IC50 came out at 8.5 nM on cFMS, 1.9 nM against PDGFR beta and 3.9 nM on c-KIT.
The matching figures for `CC(=O)c1ccn2c(C(=O)Nc3cccc4c3cnn4Cc3ccccc3)cnc2c1` [Example 146, 7-acetyl-N-(1-benzyl-1H-indazol-4-yl)imidazo[1,2-a]pyridine-3-carboxamide]: 58.2 nM, 109 nM and 36.9 nM.
On to `COCCOc1ccn2c(C(=O)Nc3ccc(Cl)c4c3cnn4Cc3ccccc3)cnc2c1` [Example 135, N-(1-benzyl-7-chloro-1H-indazol-4-yl)-7-(2-methoxyethoxy)imidazo[1,2-a]pyridine-3-carboxamide], for which the IC50 was 228 nM at cFMS, 362 nM at PDGFR beta and 396 nM at c-KIT.
Regarding `Cc1nn(Cc2cc(C)n(C(C)C)n2)c2cccc(NC(=O)c3cnc4cc(OCCN5CC6(CN(C)C6)C5)ccn34)c12` [Example 8, N-(1-((1-Isopropyl-5-methyl-1H-pyrazol-3-yl)methyl)-3-methyl-1H-indazol-4-yl)-7-(2-(6-methyl-2,6-diazaspiro[3.3]heptan-2-yl)ethoxy)imidazo[1,2-a]pyridine-3-carboxamide], the 50% inhibitory concentration (IC50) at cFMS is 33.6 nM; at PDGFR beta, 32.6 nM; on c-KIT, 122 nM.
Consider `COCCOc1ccn2c(C(=O)Nc3cccc4c3cnn4CCc3ccccc3)cnc2c1` [Example 151, 7-(2-methoxyethoxy)-N-(1-phenethyl-1H-indazol-4-yl)imidazo[1,2-a]pyridine-3-carboxamide], for which the results for the IC50 at cFMS, on PDGFR beta and on c-KIT were 44.8 nM, 9 nM and 37.3 nM, respectively.
Regarding `COCCOc1ccn2c(C(=O)Nc3cccc4c3c(C)nn4Cc3ccccc3)cnc2c1` [Example 80, N-(1-benzyl-3-methyl-1H-indazol-4-yl)-7-(2-methoxyethoxy)imidazo[1,2-a]pyridine-3-carboxamide], the half-inhibitory concentration (IC50) amounted to 8.2 nM at cFMS, 174 nM on PDGFR beta and 5700 nM at c-KIT.
Taken in the same sequence, the figures for `CN1CCN(CCOc2ccn3c(C(=O)Nc4cccc5c4cnn5Cc4ccccc4)cnc3c2)CC1` [Example 153, N-(1-benzyl-1H-indazol-4-yl)-7-(2-(4-methylpiperazin-1-yl)ethoxy)imidazo[1,2-a]pyridine-3-carboxamide] were 14.8 nM, 5 nM and 9.5 nM.
Turning to `Cc1cccc(Cn2nc(C)c3c(NC(=O)c4cnc5cc(OCCN6CCCC6)ccn45)cccc32)n1` [Example 55, N-(3-methyl-1-((6-methylpyridin-2-yl)methyl)-1H-indazol-4-yl)-7-(2-(pyrrolidin-1-yl)ethoxy)imidazo[1,2-a]pyridine-3-carboxamide dihydrochloride], the values for the IC50 on cFMS and at PDGFR beta were 40.1 nM and 305 nM, respectively.
The matching figures for `COCCOc1ccn2c(C(=O)Nc3cccc4c3cnn4-c3ccccc3)cnc2c1` [Example 133, 7-(2-Methoxyethoxy)-N-(1-phenyl-1H-indazol-4-yl)imidazo[1,2-a]pyridine-3-carboxamide]: 99.1 nM and 1000 nM.
Take `O=C(Nc1cccc2c1cnn2CC1CCCCO1)c1cnc2ccccn12` (stereo not shown) [Example 128, N-(1-((tetrahydro-2H-pyran-2-yl)methyl)-1H-indazol-4-yl)imidazo[1,2-a]pyridine-3-carboxamide]: the IC50 on cFMS came to 131 nM.
Consider `COCCOc1ccn2c(C(=O)Nc3cccc4c3cnn4Cc3cccc(O)c3)cnc2c1` [Example 130, N-(1-(3-hydroxybenzyl)-1H-indazol-4-yl)-7-(2-methoxyethoxy)imidazo[1,2-a]pyridine-3-carboxamide], for which the IC50 on cFMS is 442 nM; on PDGFR beta, 114 nM.
As to `COCCNCCc1ccn2c(C(=O)Nc3cccc4c3c(C)nn4Cc3cccc(C)n3)cnc2c1` [Example 74, 7-(2-(2-methoxyethylamino)ethyl)-N-(3-methyl-1-((6-methylpyridin-2-yl)methyl)-1H-indazol-4-yl)imidazo[1,2-a]pyridine-3-carboxamide], at cFMS, the half-maximal inhibitory concentration (IC50) stood at 79.5 nM.
On the same count and under the same terms, the result for `Cc1cccc(Cn2nc(C)c3c(NC(=O)c4cnc5cc(-c6c(C)n[nH]c6C)ccn45)cccc32)n1` [Example 69, 7-(3,5-dimethyl-1H-pyrazol-4-yl)-N-(3-methyl-1-((6-methylpyridin-2-yl)methyl)-1H-indazol-4-yl)imidazo[1,2-a]pyridine-3-carboxamide] reads 8.2 nM.
In the case of `Cc1ccc(-c2ccn3c(C(=O)Nc4cccc5c4c(C)nn5Cc4cccc(C)n4)cnc3c2)cn1` [Example 50, N-(3-methyl-1-((6-methylpyridin-2-yl)methyl)-1H-indazol-4-yl)-7-(6-methylpyridin-3-yl)imidazo[1,2-a]pyridine-3-carboxamide di-hydrochloride], the IC50 on cFMS was 5.8 nM.
